Results taken from the supplement of paper PMC10307832.

What was measured:
Experiment in all cases: relative viability (nuclei count vs DMSO), 5 days (fraction); higher = more cells survive
GW-2580 + Palbociclib = compound: COC1=CC=C(C=C1)COC2=C(C=C(C=C2)CC3=CN=C(N=C3N)N)OC [GW-2580] + CC(=O)c1c(C)c2cnc(Nc3ccc(N4CCNCC4)cn3)nc2n(C2CCCC2)c1=O [Palbociclib] (partner 0.5 µM)
Method in brief: (§1)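 Cells from lung cancer lines were seeded into 1536-well plates and, one day later, dosed by pin tool. Treatments were either a single drug or a fixed dose of an anchor drug with five library-drug doses (not always all listed) in √10 steps. After 5 days, nuclei were stained in a one-step fixation (final 0.05% Triton X-100, 1% formaldehyde, 1 ug/ml Hoechst) and counted on 4× images, and relative viability is the treated-to-vehicle nuclei ratio, as the median of duplicate plates.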

GW-2580 + Bortezomib = compound: COC1=CC=C(C=C1)COC2=C(C=C(C=C2)CC3=CN=C(N=C3N)N)OC [GW-2580] + CC(C)C[C@H](NC(=O)[C@H](Cc1ccccc1)NC(=O)c1cnccn1)B(O)O [Bortezomib] (partner 0.002 µM)
Method in brief: as §1

GW-2580 + Crizotinib = compound: COC1=CC=C(C=C1)COC2=C(C=C(C=C2)CC3=CN=C(N=C3N)N)OC [GW-2580] + C[C@@H](Oc1cc(-c2cnn(C3CCNCC3)c2)cnc1N)c1c(Cl)ccc(F)c1Cl [Crizotinib] (partner 1 µM)
Method in brief: as §1

Fedratinib + Pictilisib = compound: Cc1cnc(Nc2ccc(OCCN3CCCC3)cc2)nc1Nc1cccc(S(=O)(=O)NC(C)(C)C)c1 [Fedratinib] + CS(=O)(=O)N1CCN(Cc2cc3nc(-c4cccc5[nH]ncc45)nc(N4CCOCC4)c3s2)CC1 [Pictilisib] (partner 1 µM)
Method in brief: as §1

Fedratinib + Pemetrexed = compound: Cc1cnc(Nc2ccc(OCCN3CCCC3)cc2)nc1Nc1cccc(S(=O)(=O)NC(C)(C)C)c1 [Fedratinib] + Nc1nc2[nH]cc(CCc3ccc(C(=O)N[C@@H](CCC(=O)O)C(=O)O)cc3)c2c(=O)[nH]1 [Pemetrexed] (partner 0.2 µM)
Method in brief: as §1

Row | Cell Line | relative viability (GW-2580 + Palbociclib; first compound 0.08 µM) | relative viability (GW-2580 + Palbociclib; first compound 0.8 µM) | relative viability (GW-2580 + Palbociclib; first compound 2.53 µM) | relative viability (GW-2580 + Palbociclib; first compound 8 µM) | relative viability (GW-2580 + Bortezomib; first compound 0.08 µM) | relative viability (GW-2580 + Bortezomib; first compound 0.8 µM) | relative viability (GW-2580 + Bortezomib; first compound 2.53 µM) | relative viability (GW-2580 + Bortezomib; first compound 8 µM) | relative viability (GW-2580 + Crizotinib; first compound 0.08 µM) | relative viability (GW-2580 + Crizotinib; first compound 0.8 µM) | relative viability (GW-2580 + Crizotinib; first compound 2.53 µM) | relative viability (GW-2580 + Crizotinib; first compound 8 µM) | relative viability (Fedratinib + Pictilisib; first compound 0.1 µM) | relative viability (Fedratinib + Pictilisib; first compound 0.3162 µM) | relative viability (Fedratinib + Pictilisib; first compound 1 µM) | relative viability (Fedratinib + Pemetrexed; first compound 0.1 µM) | relative viability (Fedratinib + Pemetrexed; first compound 0.3162 µM) | relative viability (Fedratinib + Pemetrexed; first compound 1 µM)
1 | NCI-H2085 | 0.507 | 0.467 | 0.462 | 0.438 | 1.11 | 1.12 | 1.19 | 1.03 | 0.903 | 0.918 | 0.779 | 0.758 | 0.361 | 0.442 | 0.375 | 0.88 | 1.06 | 0.805
2 | LC-2-ad | 0.578 | 0.549 | 0.491 | 0.45 | 1.05 | 1.08 | 0.922 | 1.08 | 0.484 | 0.527 | 0.462 | 0.459 | 0.422 | 0.531 | 0.115 | 0.284 | 0.267 | 0.277
3 | COR-L 105 | 0.434 | 0.398 | 0.413 | 0.39 | 0.829 | 0.99 | 0.67 | 0.797 | 0.782 | 0.827 | 0.787 | 0.677 | 0.364 | 0.471 | 0.284 | 0.96 | 1.1 | 0.827
4 | NCI-H1355 | 0.407 | 0.439 | 0.337 | 0.322 | 1.24 | 1.38 | 1.06 | 1.16 | 1.24 | 1.12 | 0.946 | 1.01 | 0.366 | 0.437 | 0.382 | 1.08 | 1.05 | 1.06
5 | H3255 | 0.308 | 0.3 | 0.317 | 0.279 | 0.542 | 0.998 | 0.579 | 0.749 | 0.837 | 0.963 | 0.744 | 0.914 | 0.42 | 0.48 | 0.432 | 0.531 | 0.559 | 0.563
6 | NCI-H1993 | 0.744 | 0.748 | 0.563 | 0.647 | 1.27 | 1.33 |  | 0.995 | 0.971 | 0.828 |  | 0.936 | 0.779 | 0.872 | 0.771 | 0.523 | 0.513 | 0.589
7 | NCI-H1734 | 0.364 | 0.432 | 0.37 | 0.311 | 0.976 | 0.995 | 0.775 | 0.967 | 0.66 | 0.74 | 0.656 | 0.509 | 0.443 | 0.479 | 0.142 | 0.442 | 0.435 | 0.356
8 | HOP-62 | 0.584 | 0.438 | 0.481 | 0.515 | 1.13 | 0.861 | 0.406 | 0.727 | 0.986 | 1.12 | 0.926 | 0.98 | 0.809 | 0.709 | 0.531 | 0.26 | 0.244 | 0.322
9 | LOU-NH91 | 0.516 | 0.514 | 0.505 | 0.54 | 0.522 | 0.534 | 0.468 | 0.46 | 0.731 | 0.75 | 0.753 | 0.728 | 0.432 | 0.53 | 0.516 | 0.43 | 0.351 | 0.399
10 | ChaGo-K-1 | 0.927 | 0.943 | 0.88 | 0.895 | 0.996 | 1.09 | 0.989 | 1 | 1.08 | 1.21 | 1.18 | 1.07 | 0.487 | 1 | 0.289 | 0.273 | 0.254 | 0.253
11 | NCI-H2228 | 0.793 | 1.03 | 0.822 | 0.843 | 1.03 | 1.1 | 0.958 | 0.986 | 0.404 | 0.528 | 0.408 | 0.5 | 0.363 | 0.432 | 0.127 | 0.331 | 0.284 | 0.294
12 | PC-14 | 0.653 | 0.614 | 0.607 | 0.473 | 0.934 | 1.09 | 0.779 | 0.95 | 0.949 | 1.04 | 0.907 | 0.899 | 0.465 | 0.606 | 0.438 | 0.124 | 0.132 | 0.131
13 | NCI-H1437 | 0.307 | 0.338 | 0.297 | 0.262 | 0.654 | 0.569 | 0.518 | 0.516 | 1.01 | 1.01 | 0.828 | 0.77 | 0.339 | 0.528 | 0.119 | 0.244 | 0.309 | 0.313
14 | NCI-H460 | 0.147 | 0.339 | 0.146 | 0.248 | 1.29 | 1.27 | 1.03 | 1.19 | 1.07 | 1.14 | 0.819 | 0.839 | 0.354 | 0.316 | 0.295 | 0.0603 | 0.0665 | 0.0598
15 | NCI-H1666 | 0.647 | 0.65 | 0.649 | 0.64 | 0.727 | 1.2 | 0.791 | 0.89 | 1.01 | 0.984 | 1.17 | 0.926 | 0.409 | 0.38 | 0.224 | 0.793 | 0.869 | 0.831
